The source of these data is patent US20150291598A1 (NOVARTIS AG, priority 2012, published 2015).

For the assay, the system named is P. falciparum (NF54 or 3D7 strain). In words: Assay for P. falciparum proliferation in infected human blood cells (SYBR Green). The note with it: Plasmodium falciparum, Erythrocyte, 72 h, NF54 or 3D7 infected human erythrocytes, 72 hours; read-out: EC50 (nM), inhibitory efficacy in delaying P. falciparum proliferation in infected human blood cells. The class given is cell-based, Plasmodium falciparum. The procedure, abridged: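 NF54 or 3D7 parasites in O+ human erythrocytes at 2.5% hematocrit and 0.3% parasitemia final, exposed to compounds 72 h at 37 °C under 93% N2/4% CO2/3% O2.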

On to `CN(C)Cc1ccc(-c2cnc3cnc(C(=O)N(C)c4ccc(Cl)nc4)cn23)cc1` [Compound 388, N-(6-chloropyridin-3-yl)-3-{4-[(dimethylamino)methyl]phenyl}-N-methylimidazo[1,2-a]pyrazine-6-carboxamide], for which the EC50 turned out to be 762 nM.

As to `N#Cc1nc[nH]c1NC(=O)c1cn2c(-c3ccc(C(F)(F)F)cc3)cnc2cn1` [Compound 389, N-(4-cyano-1H-imidazol-5-yl)-3-[4-(trifluoromethyl)phenyl]imidazo[1,2-a]pyrazine-6-carboxamide], the EC50 is 2000 nM.

Regarding `Cc1cccnc1N(C)C(=O)c1cn2c(-c3ccc(C(F)(F)F)cc3)cnc2cn1` [Compound 390, N-methyl-N-(3-methylpyridin-2-yl)-3-[4-(trifluoromethyl)phenyl]imidazo[1,2-a]pyrazine-6-carboxamide], the EC50 worked out at 2650 nM.

As for `CN(C(=O)c1cn2c(-c3cnc4c(cnn4C)c3)cnc2cn1)c1ccc(C#N)cc1` [Compound 391, N-(4-cyanophenyl)-N-methyl-3-{1-methyl-1H-pyrazolo[3,4-b]pyridin-5-yl}imidazo[1,2-a]pyrazine-6-carboxamide], the EC50 came out at 2910 nM.

Regarding `FC(F)(F)c1ccc(-c2cnc3cnc(CN4CCOCC4)cn23)cc1` [Compound 392, 4-({3-[4-(trifluoromethyl)phenyl]imidazo[1,2-a]pyrazin-6-yl}methyl)morpholine], the EC50 is 3250 nM.

Regarding `CN(C(=O)c1cn2c(-c3ccc(C(N)=O)nc3)cnc2cn1)c1ccc(C#N)cc1` [Compound 393, 5-{6-[(4-cyanophenyl)(methyl)carbamoyl]imidazo[1,2-a]pyrazin-3-yl}pyridine-2-carboxamide], the EC50 was 3940 nM.

On to `CN(C)c1ccc(N(C)C(=O)c2cn3c(-c4ccc(C(F)(F)F)cc4)cnc3cn2)cn1` [Compound 394, N-[6-(dimethylamino)pyridin-3-yl]-N-methyl-3-[4-(trifluoromethyl)phenyl]imidazo[1,2-a]pyrazine-6-carboxamide], for which the EC50 was found to be 4910 nM.

Take `COc1ccc(N(C)C(=O)c2cn3c(-c4ccc(C(F)(F)F)cc4)cnc3cn2)nn1` [Compound 395, N-(6-methoxypyridazin-3-yl)-N-methyl-3-[4-(trifluoromethyl)phenyl]imidazo[1,2-a]pyrazine-6-carboxamide]: the EC50 amounted to 5020 nM.

`CN(C(=O)c1cn2c(-c3ccc4[nH]nc(N)c4c3)cnc2cn1)c1ccc(C#N)cc1` [Compound 396, 3-(3-amino-1H-indazol-5-yl)-N-(4-cyanophenyl)-N-methylimidazo[1,2-a]pyrazine-6-carboxamide]: the EC50 came to 5720 nM.

For `NC(=O)C1CCCN(C(=O)c2cn3c(-c4ccc(C(F)(F)F)cc4)cnc3cn2)C1` (stereo not drawn) [Compound 397, 1-({3-[4-(trifluoromethyl)phenyl]imidazo[1,2-a]pyrazin-6-yl}carbonyl)piperidine-3-carboxamide], the EC50 turned out to be 6550 nM.

Consider `CNc1ccc(-c2cnc3cnc(C(=O)N(C)c4ccc(Cl)nc4)cn23)cc1` [Compound 398, N-(6-chloropyridin-3-yl)-N-methyl-3-[4-(methylamino)phenyl]imidazo[1,2-a]pyrazine-6-carboxamide], for which the EC50 stood at 6840 nM.

For `COc1ncc(N(C)C(=O)c2cn3c(-c4ccc(C(F)(F)F)cc4)cnc3cn2)cn1` [Compound 399, N-(2-methoxypyrimidin-5-yl)-N-methyl-3-[4-(trifluoromethyl)phenyl]imidazo[1,2-a]pyrazine-6-carboxamide], the EC50 is 6980 nM.

Turning to `CN(C(=O)c1cn2c(-c3ccc(NCCN4CCOCC4)nc3)cnc2cn1)c1ccc(C#N)cc1` [Compound 400, -(4-cyanophenyl)-N-methyl-3-(6-{[2-(morpholin-4-yl)ethyl]amino}pyridin-3-yl)imidazo[1,2-a]pyrazine-6-carboxamide], the EC50 was determined as 7850 nM.

For `CN(C(=O)c1cn2c(-c3ccc(C#N)nc3)cnc2cn1)c1ccc(C#N)cc1` [Compound 401, N-(4-cyanophenyl)-3-(6-cyanopyridin-3-yl)-N-methylimidazo[1,2-a]pyrazine-6-carboxamide], the EC50 was greater than 10000 nM.

For `CN(C(=O)c1cn2c(-c3ccc(OC(C)(C)CN)cc3)cnc2cn1)c1ccc(C#N)cc1` [Compound 402, 3-{4-[(1-amino-2-methylpropan-2-yl)oxy]phenyl}-N-(4-cyanophenyl)-N-methylimidazo[1,2-a]pyrazine-6-carboxamide], the EC50 came to 3610 nM.

As for `CN(C(=O)c1cn2c(C(=O)Nc3ccc(C(F)(F)F)cc3)cnc2cn1)c1ccc(Cl)nc1` [Compound 403, 6-N-(6-chloropyridin-3-yl)-6-N-methyl-3-N-[4-(trifluoromethyl)phenyl]imidazo[1,2-a]pyrazine-3,6-dicarboxamide], the EC50 is greater than 5980 nM.

As for `NC(=O)c1nc[nH]c1NC(=O)c1cn2c(-c3ccc(C(F)(F)F)cc3)cnc2cn1` [Compound 404, 5-C-3-[4-(trifluoromethyl)phenyl]imidazo[1,2-a]pyrazine-6-1H-imidazole-4,5-dicarboxamide], the EC50 is greater than 7570 nM.

Consider `CC(c1ccc(Cl)cc1)N(C)C(=O)c1cn2c(-c3ccc(C(F)(F)F)cc3)cnc2cn1` (stereo not drawn) [Compound 405, N-[1-(4-chlorophenyl)ethyl]-N-methyl-3-[4-(trifluoromethyl)phenyl]imidazo[1,2-a]pyrazine-6-carboxamide], for which the EC50 was greater than 8820 nM.

In the case of `O=C(Nc1ccc(S(=O)(=O)Nc2nccs2)cc1)c1cn2c(-c3ccc(C(F)(F)F)cc3)cnc2cn1` [Compound 406, N-{4-[(1,3-thiazol-2-yl)sulfamoyl]phenyl}-3-[4-(trifluoromethyl)phenyl]imidazo[1,2-a]pyrazine-6-carboxamide], the EC50 is greater than 8860 nM.

Turning to `CNc1ccc(-c2cnc3cnc(C(=O)N(C)c4ccc(Cl)nc4)cn23)cn1` [Compound 407, N-(6-chloropyridin-3-yl)-N-methyl-3-[6-(methylamino)pyridin-3-yl]imidazo[1,2-a]pyrazine-6-carboxamide], the EC50 was greater than 8970 nM.

Take `CN(C(=O)c1cn2c(-c3ccc(NC(=O)C(C)(C)N)cc3)cnc2cn1)c1ccc(C#N)cc1` [Compound 408, 3-[4-(2-amino-2-methylpropanamido)phenyl]-N-(4-cyanophenyl)-N-methylimidazo[1,2-a]pyrazine-6-carboxamide]: the EC50 is greater than 9300 nM.

For the molecule `Cc1ccc(N(C)C(=O)c2cn3c(-c4ccc(OCCN)cc4)cnc3cn2)nc1` [Compound 409, 3-[4-(2-aminoethoxyl)phenyl]-N-methyl-N-(5-methylpyridin-2-yl)imidazo[1,2-a]pyrazine-6-carboxamide], the EC50 was greater than 9340 nM.

On to `CN(C(=O)c1cn2c(-c3ccc(-c4nnco4)cc3)cnc2cn1)c1ccc(Cl)nc1` [Compound 410, N-(6-chloropyridin-3-yl)-N-methyl-3-[4-(1,3,4-oxadiazol-2-yl)phenyl]imidazo[1,2-a]pyrazine-6-carboxamide], for which the EC50 is greater than 10000 nM.

`Cc1nc(C(=O)N2CCCc3cc(F)ccc32)cn2c(-c3ccc(C(F)(F)F)cc3)cnc12` [Compound 411, 6-fluoro-1-({8-methyl-3-[4-(trifluoromethyl)phenyl]imidazo[1,2-a]pyrazin-6-yl}carbonyl)-1,2,3,4-tetrahydroquinoline]: the EC50 was greater than 7570 nM.

In the case of `CN(C(=O)c1cn2c(-c3ccc(C(F)(F)F)cc3)cnc2cn1)c1ccc(C2CCCC2)cn1` [Compound 412, N-(5-cyclopentylpyridin-2-yl)-N-methyl-3-[4-(trifluoromethyl)phenyl]imidazo[1,2-a]pyrazine-6-carboxamide], the EC50 worked out at 7880 nM.

For the molecule `CN(C(=O)c1cn2c(-c3ccc(C(F)(F)F)nc3)cnc2cn1)c1ccc(Cl)nc1` [Compound 413, N-(6-chloropyridin-3-yl)-N-methyl-3-[6-(trifluoromethyl)pyridin-3-yl]imidazo[1,2-a]pyrazine-6-carboxamide], the EC50 was found to be 7400 nM.

In the case of `CC(C)(NC(=O)c1cn2c(-c3ccc(C(F)(F)F)cc3)cnc2cn1)c1ccc(F)cc1` [Compound 414, N-[2-(4-fluorophenyl)propan-2-yl]-3-[4-(trifluoromethyl)phenyl]imidazo[1,2-a]pyrazine-6-carboxamide], the EC50 is greater than 7910 nM.

As for `COC(=O)Nc1ccc(-c2cnc3cnc(C(=O)N(C)c4ccc(C)cn4)cn23)cn1` [Compound 415, methyl N-(5-{6-[methyl(5-methylpyridin-2-yl)carbamoyl]imidazo[1,2-a]pyrazin-3-yl}pyridin-2-yl)carbamate], the EC50 is greater than 10000 nM.

As for `CN(C(=O)c1cn2c(-c3ccc(C(F)(F)F)cc3)cnc2cn1)c1cccc2nncn12` [Compound 416, N-methyl-N-{[1,2,4]triazolo[4,3-a]pyridin-5-yl}-3-[4-(trifluoromethyl)phenyl]imidazo[1,2-a]pyrazine-6-carboxamide], the EC50 is greater than 10000 nM.

In the case of `CN(C(=O)c1ccc(C(C)(C)C)cc1)c1cn2c(-c3ccc(C(F)(F)F)cc3)cnc2cn1` [Compound 417, 4-tert-butyl-N-methyl-N-{3-[4-(trifluoromethyl)phenyl]imidazo[1,2-a]pyrazin-6-yl}benzamide], the EC50 is greater than 10000 nM.

With `CN(C)c1cccc(-c2cnc3cnc(C(=O)N(C)c4ccc(Cl)nc4)cn23)c1` [Compound 418, N-(6-chloropyridin-3-yl)-3-[3-(dimethylamino)phenyl]-N-methylimidazo[1,2-a]pyrazine-6-carboxamide], the EC50 is greater than 10000 nM.

Regarding `CN(C(=O)c1cn2c(-c3ccc(NS(C)(=O)=O)cc3)cnc2cn1)c1ccc(Cl)nc1` [Compound 419, N-(6-chloropyridin-3-yl)-3-(4-methanesulfonamidophenyl)-N-methylimidazo[1,2-a]pyrazine-6-carboxamide], the EC50 was greater than 8270 nM.

With `Cc1ncccc1N(C)C(=O)c1cn2c(-c3ccc(C(F)(F)F)cc3)cnc2cn1` [Compound 420, N-methyl-N-(2-methylpyridin-3-yl)-3-[4-(trifluoromethyl)phenyl]imidazo[1,2-a]pyrazine-6-carboxamide], the EC50 was greater than 10000 nM.
